One assay deals with DDR1 (Homo sapiens (Human), UniProt Q08345). In words: DDR1 binding assay (LanthaScreen Europium Kinase Binding assay). As for the experimental part:
(§1) DDR1 and DDR2 binding assays were performed using Life Technologies LanthaScreen™ Europium Kinase Binding assay. The compounds were incubated with 5 nM DDR1 (Carna Biosciences) or 5 nM DDR2 (Life Technologies) for 1 h at rt in white 384-well OptiPlate (PerkinElmer), containing 20 nM or 10 nM Kinase Tracer 178 respectively and 2 nM Europium labelled anti-GST antibody (Life Technologies) in assay buffer (50 mM HEPES pH 7.5, 10 mM MgCI2, 1 mM EGTA and 0.01% BRIJ35). The ratio of fluorescence emission 665 nm/615 nm after excitation at 340 nm was obtained using the Tecan Spark 20M plate reader. IC50 values were determined in GraphPad Prism 7.0 software, using 4 parameter model: log(inhibitor) vs. response. IC50 values were converted in Ki using the Cheng-Prusoff equation (Ki=IC50/(1+[Tracer]/Kd).

The next assay deals with DDR2 (Homo sapiens (Human), UniProt Q16832). In words: DDR2 binding assay (LanthaScreen Europium Kinase Binding assay). As to the method: as §1
DDR2, sequence (Q16832 22-855): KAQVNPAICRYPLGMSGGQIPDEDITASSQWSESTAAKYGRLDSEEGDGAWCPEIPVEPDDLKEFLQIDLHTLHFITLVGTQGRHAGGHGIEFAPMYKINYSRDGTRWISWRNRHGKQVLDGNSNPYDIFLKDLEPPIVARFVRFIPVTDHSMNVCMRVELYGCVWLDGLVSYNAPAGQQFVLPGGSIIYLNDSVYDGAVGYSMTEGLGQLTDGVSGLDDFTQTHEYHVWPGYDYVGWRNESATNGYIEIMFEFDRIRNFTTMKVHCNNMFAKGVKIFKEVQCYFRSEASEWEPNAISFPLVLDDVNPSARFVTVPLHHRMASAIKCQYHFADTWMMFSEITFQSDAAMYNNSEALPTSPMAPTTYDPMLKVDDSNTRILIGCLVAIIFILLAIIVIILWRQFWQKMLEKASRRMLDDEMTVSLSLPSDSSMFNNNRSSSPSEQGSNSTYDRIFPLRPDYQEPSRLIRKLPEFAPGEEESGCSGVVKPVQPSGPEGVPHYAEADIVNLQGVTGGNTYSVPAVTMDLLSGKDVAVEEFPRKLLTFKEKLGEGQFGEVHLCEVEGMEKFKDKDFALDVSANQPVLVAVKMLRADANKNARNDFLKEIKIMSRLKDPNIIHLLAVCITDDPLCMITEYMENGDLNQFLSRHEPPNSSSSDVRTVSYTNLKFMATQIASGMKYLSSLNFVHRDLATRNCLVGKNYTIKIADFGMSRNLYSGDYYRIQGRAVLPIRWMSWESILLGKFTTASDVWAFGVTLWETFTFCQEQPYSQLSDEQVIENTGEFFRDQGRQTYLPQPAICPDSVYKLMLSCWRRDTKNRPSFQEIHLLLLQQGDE
Where [1] appears, read: 5 nM DDR1, 20 nM Kinase Tracer 178, 1 h at rt, Ki from IC50 by Cheng-Prusoff, read-out: Ki DDR1.
Setting [2] is: 5 nM DDR2, 10 nM Kinase Tracer 178, 1 h at rt, Ki from IC50 by Cheng-Prusoff, read-out: Ki DDR2.

Where two headings read alike, the source gives them in different places.

Here are results for 26 compounds from patent publication US20260028328A1, “HETEROARYL DERIVATIVES AS DDRs INHIBITORS” (CHIESI FARMACEUTICI S.P.A., priority 2022, published 2026).

DDR1, sequence (Q08345 19-913): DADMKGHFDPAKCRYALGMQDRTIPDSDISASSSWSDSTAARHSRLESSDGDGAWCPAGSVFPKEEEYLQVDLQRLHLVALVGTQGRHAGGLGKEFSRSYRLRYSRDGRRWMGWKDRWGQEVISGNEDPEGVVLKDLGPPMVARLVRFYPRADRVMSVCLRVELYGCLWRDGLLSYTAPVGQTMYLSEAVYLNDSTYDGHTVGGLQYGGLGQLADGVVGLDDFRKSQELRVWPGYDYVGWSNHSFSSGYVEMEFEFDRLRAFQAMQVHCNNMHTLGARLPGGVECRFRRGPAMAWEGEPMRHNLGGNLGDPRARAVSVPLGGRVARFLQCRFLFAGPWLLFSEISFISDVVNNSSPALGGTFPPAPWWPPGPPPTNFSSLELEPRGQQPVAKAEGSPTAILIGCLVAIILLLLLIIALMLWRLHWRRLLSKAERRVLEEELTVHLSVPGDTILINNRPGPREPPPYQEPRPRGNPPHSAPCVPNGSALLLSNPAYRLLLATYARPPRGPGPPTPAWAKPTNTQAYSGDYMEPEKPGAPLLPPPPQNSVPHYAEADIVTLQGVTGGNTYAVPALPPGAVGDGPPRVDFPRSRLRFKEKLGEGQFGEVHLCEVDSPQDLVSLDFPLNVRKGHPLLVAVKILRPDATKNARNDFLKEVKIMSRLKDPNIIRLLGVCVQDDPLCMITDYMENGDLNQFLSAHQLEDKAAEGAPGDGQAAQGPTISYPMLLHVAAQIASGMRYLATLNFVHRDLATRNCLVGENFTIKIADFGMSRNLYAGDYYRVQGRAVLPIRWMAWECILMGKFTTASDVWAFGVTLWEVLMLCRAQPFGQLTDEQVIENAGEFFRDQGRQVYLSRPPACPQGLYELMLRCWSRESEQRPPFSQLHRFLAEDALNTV

`Cc1ccc(C(=O)Nc2cncc(C(F)(F)F)c2)cc1NC1CN(C(=O)c2cnn3ccncc23)C1` [Compound C1, 4-methyl-3-((1-(pyrazolo[1,5-a]pyrazine-3-carbonyl)azetidin-3-yl)amino)-N-(5-(trifluoromethyl)pyridin-3-yl)benzamide, reference compound]: the Ki (in general, a dissociation constant, usually derived from enzyme kinetics or from competition with a known ligand) on DDR1 (same binding assay, numeric values, read-out: DDR1 Ki) stood at 114 nM; on DDR2 (same binding assay, numeric values, read-out: DDR2 Ki), 311 nM.

As to `Cc1ccc(C(=O)Nc2cncc(C(F)(F)F)c2)cc1OC1CN(c2cnn3ccc(N4CCOCC4)nc23)C1` [Example 170, 4-methyl-3-((1-(5-morpholinopyrazolo[1,5-a]pyrimidin-3-yl)azetidin-3-yl)oxy)-N-(5-(trifluoromethyl)pyridin-3-yl)benzamide], the Ki was below 5 nM on DDR1 (setting [1]) and 5 to 25 nM at DDR2 (setting [2]).

With `Cc1ccc(C(=O)Nc2cncc(C(F)(F)F)c2)cc1OC1CN(c2cnccc2C#N)C1` [Example 174, 3-((1-(4-cyanopyridin-3-yl)azetidin-3-yl)oxy)-4-methyl-N-(5-(trifluoromethyl)pyridin-3-yl)benzamide], the Ki at DDR1 (setting [1]) and at DDR2 (setting [2]) was below 5 nM throughout.

On to `Cc1ccc(C(=O)Nc2cncc(C(F)(F)F)c2)cc1C1CN(c2cnn3ccncc23)C1` [Example 184, 4-methyl-3-(1-(pyrazolo[1,5-a]pyrazin-3-yl)azetidin-3-yl)-N-(5-(trifluoromethyl)pyridin-3-yl)benzamide], for which the Ki at DDR1 (setting [1]) is below 5 nM; at DDR2 (setting [2]), 5 to 25 nM.

For the compound `Cc1ccc(C(=O)Nc2cncc(C(F)(F)F)c2)cc1OC1CN(c2cnc3ccccn23)C1` [Example 137, 3-((1-(imidazo[1,2-a]pyridin-3-yl)azetidin-3-yl)oxy)-4-methyl-N-(5-(trifluoromethyl)pyridin-3-yl)benzamide], the Ki at DDR1 (setting [1]) and on DDR2 (setting [2]) was below 5 nM throughout.

Regarding `Cc1ccc(C(=O)Nc2cncc(C(F)(F)F)c2)cc1SC1CN(c2cnn3ccncc23)C1` [Example 178, 4-methyl-3-((1-(pyrazolo[1,5-a]pyrazin-3-yl)azetidin-3-yl)thio)-N-(5-(trifluoromethyl)pyridin-3-yl)benzamide], the Ki at DDR1 (setting [1]) and on DDR2 (setting [2]) was below 5 nM throughout.

As to `CNc1ccn2ncc(N3CC(Oc4cc(C(=O)Nc5cncc(C(F)(F)F)c5)ccc4C)C3)c2n1` [Example 141, 4-methyl-3-((1-(5-(methylamino)pyrazolo[1,5-a]pyrimidin-3-yl)azetidin-3-yl)oxy)-N-(5-(trifluoromethyl)pyridin-3-yl)benzamide], the Ki at DDR1 (setting [1]) is below 5 nM; at DDR2 (setting [2]), 5 to 25 nM.

On to `Cc1ccc(C(=O)Nc2cc(C(C)(C)C)no2)cc1NC1CN(c2cnn3ccncc23)C1` [Example 149, N-(3-(tert-butyl)isoxazol-5-yl)-4-methyl-3-((1-(pyrazolo[1,5-a]pyrazin-3-yl)azetidin-3-yl)amino)benzamide], for which the Ki at DDR1 (setting [1]) and on DDR2 (setting [2]) was 5 to 25 nM throughout.

`Cc1ccc(C(=O)Nc2cncc(C(F)(F)F)c2)cc1OC1CN(c2cncc3c2cnn3C)C1` [Example 169, 4-methyl-3-((1-(1-methyl-1H-pyrazolo[3,4-c]pyridin-4-yl)azetidin-3-yl)oxy)-N-(5-(trifluoromethyl)pyridin-3-yl)benzamide]: the Ki is below 5 nM at DDR1 (setting [1]) and 5 to 25 nM at DDR2 (setting [2]).

Regarding `Cc1ccc(C(=O)Nc2cccc(CC(F)(F)F)c2)cc1OC1CN(c2cnn3ccncc23)C1` [Example 164, 4-methyl-3-((1-(pyrazolo[1,5-a]pyrazin-3-yl)azetidin-3-yl)oxy)-N-(3-(2,2,2-trifluoroethyl)phenyl)benzamide], the Ki at DDR1 (setting [1]) and at DDR2 (setting [2]) was below 5 nM throughout.

Regarding `Cc1ccc(C(=O)Nc2cncc(C(F)(F)F)c2)cc1OC1CN(c2cncc(-c3cnn(C)c3)c2)C1` [Example 143, 4-methyl-3-((1-(5-(1-methyl-1H-pyrazol-4-yl)pyridin-3-yl)azetidin-3-yl)oxy)-N-(5-(trifluoromethyl)pyridin-3-yl)benzamide], the Ki on DDR1 (setting [1]) and at DDR2 (setting [2]) was below 5 nM each time.

On to “4-methyl-3-((1-(pyrimidin-5-yl)azetidin-3-yl)thio)-N-(5-(trifluoromethyl)pyridin-3-yl)benzamide [Example 177]”, for which the results for the Ki at DDR1 (setting [1]) and on DDR2 (setting [2]) were 5 to 25 nM and 25 to 100 nM, respectively.

Turning to `Cc1ccc(C(=O)Nc2cncc(C(F)(F)F)c2)cc1OC1CN(c2cncc(C(F)F)c2)C1` [Example 165, 3-((1-(5-(difluoromethyl)pyridin-3-yl)azetidin-3-yl)oxy)-4-methyl-N-(5-(trifluoromethyl)pyridin-3-yl)benzamide], the Ki at DDR1 (setting [1]) was below 5 nM; at DDR2 (setting [2]), 5 to 25 nM.

For the compound `Cc1ccc(C(=O)Nc2cncc(C(F)(F)F)c2)cc1NC1CN(c2cnc3cnccn23)C1` [Example 147, 3-((1-(imidazo[1,2-a]pyrazin-3-yl)azetidin-3-yl)amino)-4-methyl-N-(5-(trifluoromethyl)pyridin-3-yl)benzamide], the Ki on DDR1 (setting [1]) and at DDR2 (setting [2]) was below 5 nM throughout.

For `Cc1ccc(C(=O)Nc2cncc(C(F)(F)F)c2)cc1N(C)C1CN(c2cnn3ccncc23)C1` [Example 151, 4-methyl-3-(methyl(1-(pyrazolo[1,5-a]pyrazin-3-yl)azetidin-3-yl)amino)-N-(5-(trifluoromethyl)pyridin-3-yl)benzamide], the Ki is below 5 nM at DDR1 (setting [1]) and 5 to 25 nM at DDR2 (setting [2]).

For the compound `Cc1ccc(C(=O)Nc2cncc(OC(F)(F)F)c2)cc1OC1CN(c2cnn3ccncc23)C1` [Example 157, 4-methyl-3-((1-(pyrazolo[1,5-a]pyrazin-3-yl)azetidin-3-yl)oxy)-N-(5-(trifluoromethoxy)pyridin-3-yl)benzamide], the Ki at DDR1 (setting [1]) and at DDR2 (setting [2]) was below 5 nM in each case.

Consider `Cc1ccc(C(=O)Nc2cncc(C(F)(F)F)c2)cc1OC1CN(c2cnn3cccnc23)C1` [Example 142, 4-methyl-3-((1-(pyrazolo[1,5-a]pyrimidin-3-yl)azetidin-3-yl)oxy)-N-(5-(trifluoromethyl)pyridin-3-yl)benzamide], for which the Ki on DDR1 (setting [1]) is below 5 nM; on DDR2 (setting [2]), 5 to 25 nM.

For `Cc1ccc(C(=O)Nc2cncc(C(F)(F)F)c2)cc1OC1CN(c2cnn3ccc(N4CCC(CO)CC4)nc23)C1` [Example 180, 3-((1-(5-(4-(hydroxymethyl)piperidin-1-yl)pyrazolo[1,5-a]pyrimidin-3-yl)azetidin-3-yl)oxy)-4-methyl-N-(5-(trifluoromethyl)pyridin-3-yl)benzamide], the Ki on DDR1 (setting [1]) was 5 to 25 nM; on DDR2 (setting [2]), above 100 nM.

Consider `COc1ccc(OC(F)(F)F)cc1NC(=O)c1ccc(C)c(OC2CN(c3cnn4ccncc34)C2)c1` [Example 158, N-(2-methoxy-5-(trifluoromethoxy)phenyl)-4-methyl-3-((1-(pyrazolo[1,5-a]pyrazin-3-yl)azetidin-3-yl)oxy)benzamide], for which the values for the Ki on DDR1 (setting [1]) and at DDR2 (setting [2]) were below 5 nM and 5 to 25 nM, respectively.

Turning to `Cc1ccc(C(=O)Nc2cncc(C(F)(F)F)c2)cc1OC1CN(c2cncnc2)C1` [Example 135, 4-methyl-3-((1-(pyrimidin-5-yl)azetidin-3-yl)oxy)-N-(5-(trifluoromethyl)pyridin-3-yl)benzamide], the Ki is below 5 nM at DDR1 (setting [1]) and 5 to 25 nM at DDR2 (setting [2]).

As for `O=C(Nc1cncc(C(F)(F)F)c1)c1ccc(OC(F)F)c(OC2CN(c3cnn4ccncc34)C2)c1` [Example 182, 4-(difluoromethoxy)-3-((1-(pyrazolo[1,5-a]pyrazin-3-yl)azetidin-3-yl)oxy)-N-(5-(trifluoromethyl)pyridin-3-yl)benzamide], the Ki on DDR1 (setting [1]) and at DDR2 (setting [2]) was below 5 nM throughout.

For the compound `Cc1ccc(C(=O)Nc2cc(C(C)(C)C)on2)cc1NC1CN(c2cnn3ccncc23)C1` [Example 150, N-(5-(tert-butyl)isoxazol-3-yl)-4-methyl-3-((1-(pyrazolo[1,5-a]pyrazin-3-yl)azetidin-3-yl)amino)benzamide], the figures for the Ki at DDR1 (setting [1]) and on DDR2 (setting [2]) were 5 to 25 nM and 25 to 100 nM, respectively.

`Cc1ccc(C(=O)Nc2cncc(C(F)(F)F)c2)cc1S(=O)(=O)C1CN(c2cnn3ccncc23)C1` [Example 179, 4-methyl-3-((1-(pyrazolo[1,5-a]pyrazin-3-yl)azetidin-3-yl)sulfonyl)-N-(5-(trifluoromethyl)pyridin-3-yl)benzamide]: the Ki was 5 to 25 nM on DDR1 (setting [1]) and 25 to 100 nM at DDR2 (setting [2]).

`Cc1ccc(C(=O)Nc2cncc(C(F)(F)F)c2)cc1OC1CN(c2cnn3ccncc23)C1` [Example 136, 4-methyl-3-((1-(pyrazolo[1,5-a]pyrazin-3-yl)azetidin-3-yl)oxy)-N-(5-(trifluoromethyl)pyridin-3-yl)benzamide]: the Ki at DDR1 (setting [1]) and on DDR2 (setting [2]) was below 5 nM in each case.

As to `COc1ccc(C(F)(F)F)cc1NC(=O)c1ccc(C)c(OC2CN(c3cnn4ccncc34)C2)c1` [Example 153, N-(2-methoxy-5-(trifluoromethyl)phenyl)-4-methyl-3-((1-(pyrazolo[1,5-a]pyrazin-3-yl)azetidin-3-yl)oxy)benzamide], the Ki is below 5 nM on DDR1 (setting [1]) and 5 to 25 nM on DDR2 (setting [2]).

Take `Cc1ccc(C(=O)Nc2cncc(C(F)(F)F)c2)cc1OC1CN(c2cnc3cnccn23)C1` [Example 146, 3-((1-(imidazo[1,2-a]pyrazin-3-yl)azetidin-3-yl)oxy)-4-methyl-N-(5-(trifluoromethyl)pyridin-3-yl)benzamide]: the Ki on DDR1 (setting [1]) and on DDR2 (setting [2]) was below 5 nM in each case.
